Measurements reported in ChEMBL document CHEMBL1201862, “PubChem BioAssay data set” (2004).
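Grown in 96-well plates, cells were treated for 48 hours with each compound at five concentrations. Insufficient inhibition: endpoint recorded as highest concentration tested. The concentration for 50% growth inhibition is given as GI50.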 Active and inactive are the calls of the source. Cut-off read from the data, not from the text of the source: active = GI50 up to about 1.1 µM and inactive = higher.

What was measured:
Experiment in all cases: NCI-60 cell line screen, 48 h
SF-268 = system: SF-268
KM12 = system: KM12
MDA-MB-231 = system: MDA-MB-231
MDA-N = system: MDA-N
U-251 = system: U-251
OVCAR-5 = system: OVCAR-5
MDA-MB-435 = system: MDA-MB-435
COLO 205 = system: COLO 205
A549 = system: A549
NCI-H226 = system: NCI-H226
SK-MEL-2 = system: SK-MEL-2
HOP-92 = system: HOP-92
SK-MEL-28 = system: SK-MEL-28
PC-3 = system: PC-3
Malme-3M = system: Malme-3M
ACHN = system: ACHN
UACC-257 = system: UACC-257
BT-549 = system: BT-549
SK-OV-3 = system: SK-OV-3
NCI-H522 = system: NCI-H522
SK-MEL-5 = system: SK-MEL-5
CAKI-1 = system: CAKI-1
SW-620 = system: SW-620
IGROV-1 = system: IGROV-1
NCI/ADR-RES = system: NCI/ADR-RES
LOX IMVI = system: LOX IMVI
HCT-15 = system: HCT-15
NCI-H23 = system: NCI-H23
NCI-H460 = system: NCI-H460
SF-539 = system: SF-539
M14 = system: M14
HCT-116 = system: HCT-116
RXF 393 = system: RXF 393
UO-31 = system: UO-31
DU-145 = system: DU-145
K562 = system: K562
UACC-62 = system: UACC-62
SN12C = system: SN12C
HT-29 = system: HT-29
HCC 2998 = system: HCC 2998
Hs-578T = system: Hs-578T
OVCAR-4 = system: OVCAR-4
A498 = system: A498
TK-10 = system: TK-10
786-0 = system: 786-0
OVCAR-3 = system: OVCAR-3
SR = system: SR
OVCAR-8 = system: OVCAR-8
HL-60 = system: HL-60
MCF7 = system: MCF7
SNB-75 = system: SNB-75
HOP-62 = system: HOP-62
RPMI-8226 = system: RPMI-8226
T47D = system: T47D
EKVX = system: EKVX
SF-295 = system: SF-295
SNB-19 = system: SNB-19
MOLT-4 = system: MOLT-4
CCRF-CEM = system: CCRF-CEM

## Cc1ccc2nc(N/N=C/c3cccc(C)n3)cc(C)c2c1
SF-268
  GI50: 17.2 µM (inactive)
KM12
  GI50: 12.7 µM (inactive)
MDA-MB-231
  GI50: 18.6 µM (inactive)
MDA-N
  GI50: 16.3 µM (inactive)
U-251
  GI50: 16.9 µM (inactive)
OVCAR-5
  GI50: 14.3 µM (inactive)
MDA-MB-435
  GI50: 15.7 µM (inactive)
COLO 205
  GI50: 15 µM (inactive)
A549
  GI50: 16 µM (inactive)
NCI-H226
  GI50: 24.7 µM (inactive)
SK-MEL-2
  GI50: 18.8 µM (inactive)
HOP-92
  GI50: 17.6 µM (inactive)
SK-MEL-28
  GI50: 17.1 µM (inactive)
PC-3
  GI50: 17.7 µM (inactive)
Malme-3M
  GI50: 16 µM (inactive)
ACHN
  GI50: 15.7 µM (inactive)
UACC-257
  GI50: 16.9 µM (inactive)
BT-549
  GI50: 18.8 µM (inactive)
SK-OV-3
  GI50: 15.4 µM (inactive)
NCI-H522
  GI50: 17.6 µM (inactive)
SK-MEL-5
  GI50: 17.2 µM (inactive)
CAKI-1
  GI50: 16.8 µM (inactive)
SW-620
  GI50: 17.1 µM (inactive)
IGROV-1
  GI50: 13.9 µM (inactive)
NCI/ADR-RES
  GI50: 16.2 µM (inactive)
LOX IMVI
  GI50: 15.1 µM (inactive)
HCT-15
  GI50: 14.2 µM
NCI-H23
  GI50: 18.8 µM (inactive)
NCI-H460
  GI50: 6.89 µM (inactive)
SF-539
  GI50: 17.8 µM (inactive)
M14
  GI50: 24.2 µM (inactive)
HCT-116
  GI50: 14.7 µM (inactive)
RXF 393
  GI50: 16.5 µM (inactive)
UO-31
  GI50: 19.7 µM (inactive)
DU-145
  GI50: 17.3 µM (inactive)
K562
  GI50: 45 µM (inactive)
UACC-62
  GI50: 15.2 µM (inactive)
SN12C
  GI50: 17.2 µM (inactive)
HT-29
  GI50: 12.3 µM (inactive)
HCC 2998
  GI50: 12.6 µM (inactive)
Hs-578T
  GI50: 23.8 µM (inactive)
OVCAR-4
  GI50: 16.6 µM (inactive)
A498
  GI50: 17.9 µM (inactive)
TK-10
  GI50: 14.7 µM (inactive)
786-0
  GI50: 16.2 µM (inactive)
OVCAR-3
  GI50: 14 µM (inactive)
SR
  GI50: 16.4 µM (inactive)
OVCAR-8
  GI50: 20.5 µM (inactive)
HL-60
  GI50: 2.26 µM (inactive)
MCF7
  GI50: 13.6 µM (inactive)
SNB-75
  GI50: 19.7 µM (inactive)
HOP-62
  GI50: 16 µM (inactive)
RPMI-8226
  GI50: 14 µM (inactive)
T47D
  GI50: 16 µM (inactive)
EKVX
  GI50: 16.6 µM (inactive)
SF-295
  GI50: 15.4 µM (inactive)
SNB-19
  GI50: 20.5 µM (inactive)

## CC(C)(C)OC(=O)NC12C3C4C1C1C2C3C41NC(=O)OC(C)(C)C (stereo not drawn)
SF-268
  GI50: 35.8 µM (inactive)
KM12
  GI50: 15.8 µM (inactive)
MOLT-4
  GI50: 15.2 µM (inactive)
MDA-MB-231
  GI50: 26 µM (inactive)
MDA-N
  GI50: 61.2 µM (inactive)
U-251
  GI50: 37.8 µM (inactive)
OVCAR-5
  GI50: > 100 µM (inactive)
MDA-MB-435
  GI50: 51.9 µM (inactive)
COLO 205
  GI50: > 100 µM (inactive)
CCRF-CEM
  GI50: 21.3 µM (inactive)
A549
  GI50: 71.9 µM (inactive)
SK-MEL-2
  GI50: > 100 µM (inactive)
HOP-92
  GI50: 68.1 µM (inactive)
SK-MEL-28
  GI50: 51.4 µM (inactive)
PC-3
  GI50: 61.2 µM (inactive)
ACHN
  GI50: > 100 µM (inactive)
UACC-257
  GI50: 39.4 µM (inactive)
BT-549
  GI50: 42.6 µM (inactive)
NCI-H522
  GI50: 63.2 µM (inactive)
SK-MEL-5
  GI50: 26.5 µM (inactive)
CAKI-1
  GI50: > 100 µM (inactive)
SW-620
  GI50: 62.8 µM (inactive)
IGROV-1
  GI50: > 100 µM (inactive)
NCI/ADR-RES
  GI50: 22.5 µM (inactive)
LOX IMVI
  GI50: 36.1 µM (inactive)
HCT-15
  GI50: 73.3 µM
NCI-H23
  GI50: 57.4 µM (inactive)
NCI-H460
  GI50: 35.6 µM (inactive)
SF-539
  GI50: 31 µM (inactive)
M14
  GI50: 50 µM (inactive)
HCT-116
  GI50: 47.3 µM (inactive)
RXF 393
  GI50: 28.5 µM (inactive)
UO-31
  GI50: 39.4 µM (inactive)
DU-145
  GI50: 68.4 µM (inactive)
K562
  GI50: 50.4 µM (inactive)
UACC-62
  GI50: 54.3 µM (inactive)
SN12C
  GI50: 88.5 µM (inactive)
HT-29
  GI50: 26.9 µM (inactive)
HCC 2998
  GI50: > 100 µM (inactive)
Hs-578T
  GI50: 23.7 µM (inactive)
OVCAR-4
  GI50: 35.4 µM (inactive)
A498
  GI50: 50.5 µM (inactive)
TK-10
  GI50: > 100 µM (inactive)
786-0
  GI50: 43.1 µM (inactive)
OVCAR-3
  GI50: 79.3 µM (inactive)
SR
  GI50: 47.5 µM (inactive)
OVCAR-8
  GI50: 30.5 µM (inactive)
HL-60
  GI50: 19.7 µM (inactive)
MCF7
  GI50: 29.6 µM (inactive)
HOP-62
  GI50: 50.6 µM (inactive)
T47D
  GI50: 27.3 µM (inactive)
EKVX
  GI50: 26.9 µM (inactive)
SF-295
  GI50: 48.1 µM (inactive)
SNB-19
  GI50: > 100 µM (inactive)

## CCC(Nc1ncnc2nc[nH]c12)C(=O)O (stereo not drawn)
SF-268
  GI50: > 100 µM (inactive)
KM12
  GI50: > 100 µM (inactive)
MDA-MB-231
  GI50: > 100 µM (inactive)
MDA-N
  GI50: > 100 µM (inactive)
U-251
  GI50: > 100 µM (inactive)
OVCAR-5
  GI50: > 100 µM (inactive)
MDA-MB-435
  GI50: > 100 µM (inactive)
COLO 205
  GI50: > 100 µM (inactive)
CCRF-CEM
  GI50: > 100 µM (inactive)
A549
  GI50: > 100 µM (inactive)
NCI-H226
  GI50: > 100 µM (inactive)
SK-MEL-2
  GI50: > 100 µM (inactive)
HOP-92
  GI50: > 100 µM (inactive)
SK-MEL-28
  GI50: > 100 µM (inactive)
PC-3
  GI50: > 100 µM (inactive)
Malme-3M
  GI50: > 100 µM (inactive)
ACHN
  GI50: > 100 µM (inactive)
UACC-257
  GI50: > 100 µM (inactive)
BT-549
  GI50: > 100 µM (inactive)
SK-OV-3
  GI50: > 100 µM (inactive)
NCI-H522
  GI50: > 100 µM (inactive)
SK-MEL-5
  GI50: > 100 µM (inactive)
CAKI-1
  GI50: > 100 µM (inactive)
SW-620
  GI50: > 100 µM (inactive)
IGROV-1
  GI50: > 100 µM (inactive)
NCI/ADR-RES
  GI50: > 100 µM (inactive)
LOX IMVI
  GI50: > 100 µM (inactive)
HCT-15
  GI50: > 100 µM
NCI-H23
  GI50: > 100 µM (inactive)
NCI-H460
  GI50: > 100 µM (inactive)
M14
  GI50: > 100 µM (inactive)
HCT-116
  GI50: > 100 µM (inactive)
RXF 393
  GI50: > 100 µM (inactive)
UO-31
  GI50: > 100 µM (inactive)
DU-145
  GI50: > 100 µM (inactive)
K562
  GI50: > 100 µM (inactive)
UACC-62
  GI50: > 100 µM (inactive)
SN12C
  GI50: > 100 µM (inactive)
HT-29
  GI50: > 100 µM (inactive)
HCC 2998
  GI50: > 100 µM (inactive)
Hs-578T
  GI50: > 100 µM (inactive)
OVCAR-4
  GI50: > 100 µM (inactive)
A498
  GI50: > 100 µM (inactive)
TK-10
  GI50: > 100 µM (inactive)
786-0
  GI50: > 100 µM (inactive)
OVCAR-3
  GI50: > 100 µM (inactive)
SR
  GI50: > 100 µM (inactive)
OVCAR-8
  GI50: > 100 µM (inactive)
HL-60
  GI50: > 100 µM (inactive)
MCF7
  GI50: > 100 µM (inactive)
SNB-75
  GI50: 26.2 µM (inactive)
HOP-62
  GI50: > 100 µM (inactive)
RPMI-8226
  GI50: > 100 µM (inactive)
T47D
  GI50: > 100 µM (inactive)
EKVX
  GI50: > 100 µM (inactive)
SF-295
  GI50: > 100 µM (inactive)
SNB-19
  GI50: > 100 µM (inactive)
